According to US20080026943A1, “Phenyl-Substituted [1,2]-Oxazine-3,5-Dione and Dihydropyrone Derivatives” (priority 2004, published 2008):
Marks after values point to notes of the source that are not given here.

Experiments:
[1] = system: Pyricularia oryzae; type: cell-based; details: tested at 0.1, 1, 10 and 100 ppm, 20° C., 3 to 5 days, photometric at 620 nm
[2] = system: Lolium; assay: Pre-emergence herbicidal effect, greenhouse; type: in vivo; details: scored after 3 weeks
From the text: (§1) Seeds of mono- and dicotyledonous weed and crop plants are placed in sandy loam soil in wood fibre pots and covered with soil. The test compounds, formulated as wettable powders (WP), are then applied as an aqueous suspension with a water application rate of 600 l/ha (converted) and with addition of 0.2% wetting agent, in different dosages to the surface of the covering soil. After the treatment, the pots are placed in a greenhouse and maintained under optimum growth conditions for the test plants. The visual scoring of the emergence damage on the trial plants is carried out after a trial time of 3 weeks in comparison to untreated controls (herbicidal effect in percent (%): 100% effect=plants have died, 0% effect=like control plants).

[3] = system: Setaria; assay: Pre-emergence herbicidal effect, greenhouse; type: in vivo; details: scored after 3 weeks
From the text: as §1

[4] = system: Echinochloa; assay: Post-emergence herbicidal effect, greenhouse; type: in vivo; details: 320 g a.i./ha, scored after about 3 weeks
Procedure: (§2) Seeds of mono- and dicotyledonous weed and crop plants are placed in sandy loam soil in wood fibre pots, covered with soil and cultivated in a greenhouse under good growth conditions. 2-3 weeks after sowing, the trial plants are treated at the one-leaf stage. The test compounds, formulated as wettable powders (WP), are sprayed at various dosages with a water application rate of 600 l/ha (converted) and with addition of 0.2% wetting agent to the green parts of the plants. After the trial plants have stood in the greenhouse for about 3 weeks under optimum growth conditions, the effect of the products is scored visually in comparison to untreated controls (herbicidal effect in percent (%): 100% effect=plants have died, 0% effect=like control plants).

[5] = system: Lolium; assay: Post-emergence herbicidal effect, greenhouse; type: in vivo; details: 320 g a.i./ha, scored after about 3 weeks
Procedure: as §2

[6] = system: Setaria; assay: Post-emergence herbicidal effect, greenhouse; type: in vivo; details: 320 g a.i./ha, scored after about 3 weeks
Procedure: as §2

[7] = logP by HPLC on a reversed-phase column (C18), EEC Directive 79/831 Annex V.A8; type: physicochemical; details: reversed-phase C18, 43° C., pH variant not stated for these values
From the text: [table] The determination is made in the acidic range at a pH of 2.3 using 0.1% aqueous phosphoric acid and acetonitrile as eluents; linear gradient from 10% acetonitrile to 95% acetonitrile. The determination with LC-MS in the acidic range is made at a pH of 2.7 with 0.1% aqueous formic acid and acetonitrile (containing 0.1% formic acid) as eluents; linear gradient from 10% acetonitrile to 95% acetonitrile. The determination with LC-MS in the neutral range is made at a pH of 7.8 with 0.001 molar aqueous ammonium hydrogen carbonate solution and acetonitrile as eluents; linear gradient from 10% acetonitrile to 95% acetonitrile. Calibration is carried out with unbranched alkan-2-ones (having 3 to 16 carbon atoms), for which the logP values are known (logP values determined on the basis of the retention times by means of linear interpolation between two successive alkanones).

[8] = system: green peach aphid (Myzus persicae); assay: Myzus persicae test (MYZUPE), leaf immersion; type: in vivo; details: 500 ppm; cabbage leaves immersed
Procedure: [table] A suitable preparation of active compound is prepared by mixing 1 part by weight of active compound with the stated amounts of solvent and emulsifier and diluting the concentrate with emulsifier-containing water to the desired concentration. Leaves of cabbage (Brassica oleracea) heavily infested by the green peach aphid (Myzus persicae) are treated by being immersed in the preparation of active compound at the desired concentration. After the desired time, the kill rate in % is determined. 100% means that all of the aphids have been killed; 0% means that no aphids have been killed.

[9] = system: Echinochloa; assay: Pre-emergence herbicidal effect, greenhouse; type: in vivo; details: 1000 g a.i./ha, scored after 3 weeks
From the text: as §1

[10] = system: Digitaria; assay: Post-emergence herbicidal effect, greenhouse; type: in vivo; details: 320 g a.i./ha, scored after about 3 weeks
Procedure: as §2

[11] = system: Sorghum; assay: Post-emergence herbicidal effect, greenhouse; type: in vivo; details: 320 g a.i./ha, scored after about 3 weeks
Procedure: as §2

[12] = system: Sugarbeets; assay: Post-emergence herbicidal effect, greenhouse; type: in vivo; details: 320 g a.i./ha, scored after about 3 weeks
Procedure: as §2

[13] = system: Plasmopara viticola; assay: Plasmopara test (grapevine)/protective; type: in vivo; details: protective, 100 g/ha, 6 days after inoculation
Procedure: (§3) [table] A suitable preparation of active compound is prepared by mixing 1 part by weight of active compound with the stated amounts of solvent and emulsifier and diluting the concentrate with water to the desired concentration. To test for protective activity, young plants are sprayed with the preparation of active compound at the stated application rate. After the spray coating has dried on, the plants are inoculated with an aqueous spore suspension of Plasmopara viticola and then spend 1 day in an incubation cabin at about 20° C. and 100% relative humidity. Thereafter the plants are placed in a greenhouse for 4 days at about 21° C. and about 90% humidity. The plants are then moistened and placed in an incubation cabin for 1 day.

[14] = system: Venturia inaequalis; assay: Venturia test (apple)/protective; type: in vivo; details: protective, 100 g/ha, 10 days after inoculation
Procedure: as §3, with “conidia” for “spore”, “the causative organism of apple scab, Venturia inaequalis,” for “Plasmopara viticola”, “greenhouse” for “greenhouse for 4 days”, “90% relative” for “90%”, “humidity.” for “humidity. The plants are then moistened and placed in an incubation cabin for 1 day.”

[15] = system: Botrytis cinerea; assay: Botrytis test (bean)/protective; type: in vivo; details: protective, 500 g/ha, two days after inoculation
Procedure: A suitable preparation of active compound is prepared by mixing 1 part by weight of active compound with the stated amounts of solvent and emulsifier and diluting the concentrate with water to the desired concentration.
To test for protective activity, young plants are sprayed with the preparation of active compound at the stated application rate. After the spray coating has dried on, two small pieces of agar colonized by Botrytis cinerea are placed on each leaf. The inoculated plants are placed in a darkened chamber at about 20° C. and 100% humidity.
Two days after inoculation, the size of the infestation spots on the leaves is evaluated. 0% denotes an efficacy corresponding to that of the control, while an efficacy of 100% denotes a total absence of observed infestation.

[16] = system: Sinapis; assay: Post-emergence herbicidal effect, greenhouse; type: in vivo; details: 320 g a.i./ha, scored after about 3 weeks
Procedure: as §2

Cc1ccc(C2(Cl)C(=O)N(C)OC(C)(C)C2=O)c(Cl)c1 (stereo not shown) [Example I-1-1]
ED50 (dose leading to 50% inhibition of fungal growth) [1]: <0.1 ppm

CCc1cc(Cl)cc(Cl)c1C1(Cl)C(=O)N(C)OC(C)(C)C1=O (stereo not shown) [Example I-1-7]
herbicidal effect in percent, Lolium ([2]; 320 g a.i./ha): 100%
herbicidal effect in percent, Setaria ([3]; 320 g a.i./ha): 100%
herbicidal effect in percent, Echinochloa [4]: 90%
herbicidal effect in percent, Lolium [5]: 90%
herbicidal effect in percent, Setaria [6]: 90%

CCc1cc(Br)ccc1C1(Cl)C(=O)N(C)OC(C)(C)C1=O (stereo not shown) [Example I-1-10]
herbicidal effect in percent, Echinochloa [4]: 90%
herbicidal effect in percent, Lolium [5]: 90%
herbicidal effect in percent, Setaria [6]: 80%

CN1OC(C)(C)C(=O)C(Cl)(c2cc(-c3ccc(Cl)cc3)ccc2Cl)C1=O (stereo not shown) [Example I-1-11]
log P [7]: log P 4.58*

Cc1ccc(-c2ccc(C(F)(F)F)cc2)cc1C1(Cl)C(=O)N(C)OC(C)(C)C1=O (stereo not shown) [Example I-1-12]
log P [7]: log P 4.56*

CC1(C)OC(=O)C(Cl)(c2cc(-c3ccc(Cl)cc3)ccc2Cl)C(=O)C1(C)C (stereo not shown) [Example I-2-1]
activity (kill rate in %) [8]: ≥ 80%
ED50 (dose leading to 50% inhibition of fungal growth) [1]: 0.48 ppm

Cc1ccc(-c2ccc(Cl)cc2)cc1C1(Cl)C(=O)OC2CCCCC2(C)C1=O (stereo not shown) [Example I-2-2]
herbicidal effect in percent, Echinochloa [9]: 100%
herbicidal effect in percent, Lolium ([2]; 1000 g a.i./ha): 80%
herbicidal effect in percent, Setaria ([3]; 1000 g a.i./ha): 100%
herbicidal effect in percent, Digitaria [10]: 100%
herbicidal effect in percent, Echinochloa [4]: 100%
herbicidal effect in percent, Lolium [5]: 80%
herbicidal effect in percent, Setaria [6]: 100%
herbicidal effect in percent, Sorghum [11]: 80%
herbicidal effect in percent, Sugarbeets [12]: 0%
ED50 (dose leading to 50% inhibition of fungal growth) [1]: 0.12 ppm
Efficacy in % [13]: 100%
Efficacy in % [14]: 99%
Efficacy in % [15]: 93%

CC1(C)OC(=O)C(Cl)(c2cc(-c3ccc(Cl)cc3Cl)ccc2Cl)C(=O)C1(C)C (stereo not shown) [Example I-2-6]
herbicidal effect in percent, Echinochloa [4]: 90%
herbicidal effect in percent, Lolium [5]: 70%
herbicidal effect in percent, Setaria [6]: 90%
herbicidal effect in percent, Sinapis [16]: 40%

Cc1ccc(-c2ccc(Cl)cc2)cc1C1(Cl)C(=O)OC(C)(C)C(C)(C)C1=O (stereo not shown) [Example I-2-10]
herbicidal effect in percent, Echinochloa [4]: 70%
herbicidal effect in percent, Lolium [5]: 70%
herbicidal effect in percent, Setaria [6]: 90%
herbicidal effect in percent, Sinapis [16]: 80%
